Source: a melting point compilation (Tetko et al.; mined from patent text by program, amines drawn as free bases though some values may be those of a salt)
Starred links: 1 amine or outer side, 2 acyl side, 3 side chain; linkers in the order of their positions; H or OH if unused. Residues, ends and D or L forms follow the SMILES beside them. Suc = O=C(CCC(=O)[*:2])[*:1]

First: OC1CN(Cc2nc(-c3ccc4c(c3)Nc3ccccc3S4)cs2)C1
Second: Cc1ccc(C(=O)C2CCN(CCc3c[nH]c4ccccc34)CC2)cc1C
The melting point of the first is higher: 240 to 242 °C for the first, 172 to 173 °C for the second.

First: CC(=O)OC(C)OC(=O)N1c2ccccc2Sc2cc(O)c3ccccc3c21 (stereo not given)
Second: CCOC(=O)Cc1nc(-c2ccccc2)c(-c2ccccc2)o1
The melting point of the first is higher: 102 to 112 °C for the first, 71 to 72 °C for the second.

First: Nc1ccccc1C(=O)NCCCCn1ccnc1
Second: COC(=O)CCCCc1cc2nc(Cl)ccc2n1S(=O)(=O)c1ccccc1
The melting point of the first is higher: 91 to 93 °C for the first, 73 °C for the second.

First: CC(=O)OCCOCn1c(=O)sc2c(=O)[nH]c(N)nc21
Second: Nc1nc2c(sc(=O)n2COCCO)c(=O)[nH]1
The melting point of the first is lower: 173 to 176 °C for the first, 230 to 232 °C for the second.

Compared with `CN(C)CCCN1N=C2C(=Cc3ccccc3)CS(=O)CC2C1c1ccccc1` (stereo not given), `Cc1cccc(C2CNCCN2C(=O)N(c2ccccc2)c2ccccc2)c1` (stereo not given) is lower in melting point: 155 to 160 °C for the first, 119 to 121 °C for the second.

Compared with `O=S(=O)(c1ccccc1)N1CCCC1c1ccc(F)cc1` (racemic), `O=C(CCCN1CCC(c2ccccc2)(c2ccccc2)CC1)c1ccc(F)cc1` is higher in melting point: 100 °C for the first, 107 to 108 °C for the second.

First: C=C(C)c1ccc(-c2ccc(C(=C)C)cc2)cc1
Second: CN(C)C=C(C(=O)c1ccc(Cl)cc1)c1ccccc1[N+](=O)[O-]
The melting point of the first is higher: 182 °C for the first, 142 to 148 °C for the second.

First: Cc1cc(C)c2c(c1C)OCC2c1cccc(Br)c1 (stereo not given)
Second: COc1ccc(N2CCN(c3c(C)c(C)c4c(c3C)C(c3cccc(C)c3)C(C)(C)O4)CC2)cc1 (stereo not given)
The melting point of the first is lower: 73 to 74 °C for the first, 159 to 161 °C for the second.

Compared with `CC(CS(=O)(=O)c1ccccc1)C1CCC2C3CC=C4CC(O)CC(O)C4(C)C3CCC12C` (stereo not given), `CN(C)OC(=O)C(C)(c1ccc(OCc2ccc3ccccc3n2)cc1)C1CCCCC1` (stereo not given) is lower in melting point: 214 °C for the first, 98 to 99 °C for the second.

First: O=C(Nc1nc2ccc(C(F)(F)F)cc2s1)c1c(F)cccc1Cl
Second: CS(=O)(=O)Nc1c(C(=O)c2cccc(Cl)c2)[nH]c2ccc(Cl)cc12
The melting point of the first is higher: 265 to 270 °C for the first, 220 to 221 °C for the second.

Compared with `COc1ccc(-c2c(Cl)c(CN3C(=O)CCC3=O)nc3sc4c(c23)CC(C)(C)C(=O)C4(F)F)cc1`, `CC1(C)CC(=O)Nc2cc3nc(-c4ccc(OS(C)(=O)=O)cc4)[nH]c3cc21` is higher in melting point: 200 to 202 °C for the first, 209 to 215 °C for the second.

First: CN1CCC(O)(c2cc(F)cc(Cl)c2)C1 (stereo not given)
Second: Fc1cc(F)c(-c2c(Cl)nc3nccn3c2N2CCCCCC2)c(F)c1
The melting point of the first is higher: 117 to 118 °C for the first, 106 to 108 °C for the second.

First: CCCCC(=O)c1ncc(-c2ccccn2)o1
Second: CCCc1ccc(C(=O)O)c2ccccc12
The melting point of the first is lower: 36 to 37 °C for the first, 134 to 135 °C for the second.

First: CCOC(=O)C(CCC(C)(C)c1cc(O)c(C(C)(C)CCC(C(=O)OCC)C(=O)OCC)cc1O)C(=O)OCC
Second: CCCCOC1c2ccccc2C(=O)N(CC(C)C)C1(/C=C/C(N)=O)CNC(=O)OC(C)(C)C (stereo not given)
The melting point of the first is higher: 157 to 160 °C for the first, 149 to 150 °C for the second.

Compared with `CCCc1c(Cl)c2cc(Br)ccc2oc1=O`, `CCOC(=O)c1cc2c(Cl)c(F)ccc2[nH]1` is higher in melting point: 96 to 97 °C for the first, 180 to 182 °C for the second.

First: COC(=O)c1cc(S(=O)(=O)c2ccc(C)cc2)cc(OC)c1OC
Second: COC(=O)c1ccccc1-c1nc(COc2ccc(C=O)cc2OC)c(C)o1
The melting point of the first is lower: 114 °C for the first, 129 to 130 °C for the second.

First: OCc1cc(-c2ccc3nnn(Cc4ccc5ncccc5c4)c3n2)cs1
Second: O=c1c(CCCc2cccnc2)cc2cccnc2n1-c1ccc2nsnc2c1
The melting point of the first is higher: 188 to 191 °C for the first, 174 °C for the second.

Compared with `CS(=O)(=O)On1nnc2c(Cl)cccc21`, `CS(=O)(=O)c1ccc(C(=O)O)c(Cl)c1CC#N` is higher in melting point: 71 to 74 °C for the first, 169 to 172 °C for the second.

Compared with `CCCCCC(=O)CCC(=O)O`, `CCNC(=O)C1CCCN1C(=O)C(C)NC(=O)CCC(=O)O` (stereo not drawn) (Suc-Ala-Pro-NHEt; configuration not given here) is higher in melting point: 67 to 68 °C for the first, 139 to 141 °C for the second.

Compared with `CC(C)(C)OC(=O)NN=C1C2CC3CC(C2)CC1C3`, `CC(C)(C)OC(=O)NN[C@@H]1c2cc(C#N)ccc2OC(C)(C)[C@H]1O` (relative stereo) is lower in melting point: 175 to 177 °C for the first, 136 to 138 °C for the second.

Compared with `O=C1Nc2ccc(Cl)cc2C(C#Cc2ccccc2)(C(F)(F)F)O1` (single isomer, unassigned; (-)), `c1ccc(C2CC(Cc3ccncc3)(Cc3ccncc3)c3ccccc32)cc1` (stereo not given) is higher in melting point: 178 to 179 °C for the first, 210 to 225 °C for the second.

First: COC(=O)CSc1cc(NC(=O)OC(C)(C)C)c([N+](=O)[O-])cc1I
Second: Cc1c(NCC(C)(C)NC(=O)OC(C)(C)C)c([N+](=O)[O-])c2nnnn2c1C
The melting point of the first is lower: 110 to 112 °C for the first, 153 to 155 °C for the second.

First: O=c1c(CCCc2cnccn2)cc2cccnc2n1-c1cccc([N+](=O)[O-])c1
Second: CCn1ncc2c3ncn(Cc4ccccc4)c(=O)c3cnc21
The melting point of the first is lower: 194 to 195 °C for the first, 198 to 200 °C for the second.

Compared with `CC(C)(C)Oc1c(-c2ccc(S(C)(=O)=O)cc2)cnn(-c2cccc(Cl)c2)c1=O`, `COc1ccc(-c2c(Cl)ncn2-c2ccc(S(C)(=O)=O)cc2)cc1F` is lower in melting point: 232 to 235 °C for the first, 196 °C for the second.

First: O=C(Cn1cncn1)c1ccc(Cl)cc1
Second: CC(C)Oc1ccc(Nc2nc(=O)n(C(C)C)c(=O)n2Cc2ccc(Cl)cc2)cc1Cl
The melting point of the first is lower: 151 to 153 °C for the first, 167 °C for the second.

First: CCCCCC(CC(=O)Nc1cc(C(N)=O)ccc1CCCC)c1ccc(C(O)C(C)C)cc1OC (stereo not given)
Second: CCCCCCc1cc2c(s1)-n1c(C)nnc1CN=C2c1ccc(C)c(C)c1
The melting point of the first is higher: 162 to 163 °C for the first, 98 to 100 °C for the second.

First: CN1C(=O)CC[C@]2(C)c3ccc(C=Cc4ccc5ccccc5n4)cc3CC[C@@H]12
Second: Cc1oc(-c2ccccc2)nc1CCOc1ccc(C[C@H](NC(=O)C=Cc2ccc(F)cc2F)C(=O)O)cc1
The melting point of the first is higher: 233 to 236 °C for the first, 199 to 201 °C for the second.

Compared with `C=CCSCCON=C(C(=O)OCC)c1csc(NC=O)n1`, `C=CCc1c(C(=O)OC)[nH]c2c(C)ccc(C)c12` is higher in melting point: 62 to 64 °C for the first, 135 to 136 °C for the second.

First: O=C(NCCC(F)(F)F)c1nc(Cl)c(Cl)[nH]1
Second: COc1cc(C(=O)c2cnc(Cl)nc2Cl)cc(OC)c1OC
The melting point of the first is higher: 177 °C for the first, 140 to 141 °C for the second.

First: CCN(CC)CCOc1ccc(CNc2ncc3c(n2)N(C)C(=O)N(c2c(Cl)cccc2Cl)C3)cc1
Second: CCCNC(=O)c1ccc(C)c(-c2nc(NCCN(C)C(=O)OC(C)(C)C)nc3c2ccc(=O)n3-c2c(F)cccc2F)c1
The melting point of the first is higher: 137 to 138 °C for the first, 115 to 118 °C for the second.

Compared with `COC(=O)[C@]1(OS(C)(=O)=O)C[C@H](CC(C)C)[C@@H]2O[C@@H]2C1`, `CN[C@@H]1CN(c2nc3c(cc2F)c(=O)c(C(=O)O)cn3C(C)(C)C)[C@H]1C` (relative stereo) is higher in melting point: 120 to 121 °C for the first, 185 to 187 °C for the second.

First: CN1CC[C@@H](c2c(O)cc(O)c3c(=O)cc(-c4cc(Cl)ccc4Br)oc23)[C@@H]1CO
Second: COc1ccc2c(OCc3cc(OC)c(F)cc3Br)cccc2c1
The melting point of the first is higher: 233 to 235 °C for the first, 138 to 142 °C for the second.

First: CC(Oc1ccc(Oc2ccc(C(F)(F)F)cc2)cc1)C(N)=O (stereo not given)
Second: COc1ccc(CC(=S)N2CCOCC2)cc1
The melting point of the first is higher: 147 to 149 °C for the first, 145 to 147 °C for the second.

Compared with `Cc1ccc(CCCC(=O)O)cc1C`, `Cc1cn(C2OC(CO)C(O)C2O)c(=O)[nH]c1=O` (stereo not given) is higher in melting point: 50 to 51 °C for the first, 244 to 249 °C for the second.

Compared with `N#CCC1(C#N)CCC(=O)CC1`, `O=C1NC(Cc2ccncc2)(Cc2ccncc2)C(=O)N1C12CC3CC(CC(C3)C1)C2` is higher in melting point: 154 to 155 °C for the first, 284 to 286 °C for the second.
